Our source for the EC50 values is PMC11237586, “4′-Fluorouridine inhibits alphavirus replication and infection in vitro and in vivo” (mBio, 2024).

For assay [1], the target named is CHIKV nsP4 (RdRp) with SFV P123, mixed trans-replicase (Chikungunya virus strain S27-African prototype, UniProt Q8JUX6). Nature of the assay: cell-based.
In assay [2] the target is SFV nsP4 (RdRp) with SFV P123, trans-replicase (Semliki Forest virus, UniProt P08411). The assay is described as follows: trans-replicase Gaussia luciferase reporter assay in transfected U-2 OS cells. The format is cell-based.
Sequence of SFV nsP4 (RdRp) with SFV P123, trans-replicase (P08411 1-1818): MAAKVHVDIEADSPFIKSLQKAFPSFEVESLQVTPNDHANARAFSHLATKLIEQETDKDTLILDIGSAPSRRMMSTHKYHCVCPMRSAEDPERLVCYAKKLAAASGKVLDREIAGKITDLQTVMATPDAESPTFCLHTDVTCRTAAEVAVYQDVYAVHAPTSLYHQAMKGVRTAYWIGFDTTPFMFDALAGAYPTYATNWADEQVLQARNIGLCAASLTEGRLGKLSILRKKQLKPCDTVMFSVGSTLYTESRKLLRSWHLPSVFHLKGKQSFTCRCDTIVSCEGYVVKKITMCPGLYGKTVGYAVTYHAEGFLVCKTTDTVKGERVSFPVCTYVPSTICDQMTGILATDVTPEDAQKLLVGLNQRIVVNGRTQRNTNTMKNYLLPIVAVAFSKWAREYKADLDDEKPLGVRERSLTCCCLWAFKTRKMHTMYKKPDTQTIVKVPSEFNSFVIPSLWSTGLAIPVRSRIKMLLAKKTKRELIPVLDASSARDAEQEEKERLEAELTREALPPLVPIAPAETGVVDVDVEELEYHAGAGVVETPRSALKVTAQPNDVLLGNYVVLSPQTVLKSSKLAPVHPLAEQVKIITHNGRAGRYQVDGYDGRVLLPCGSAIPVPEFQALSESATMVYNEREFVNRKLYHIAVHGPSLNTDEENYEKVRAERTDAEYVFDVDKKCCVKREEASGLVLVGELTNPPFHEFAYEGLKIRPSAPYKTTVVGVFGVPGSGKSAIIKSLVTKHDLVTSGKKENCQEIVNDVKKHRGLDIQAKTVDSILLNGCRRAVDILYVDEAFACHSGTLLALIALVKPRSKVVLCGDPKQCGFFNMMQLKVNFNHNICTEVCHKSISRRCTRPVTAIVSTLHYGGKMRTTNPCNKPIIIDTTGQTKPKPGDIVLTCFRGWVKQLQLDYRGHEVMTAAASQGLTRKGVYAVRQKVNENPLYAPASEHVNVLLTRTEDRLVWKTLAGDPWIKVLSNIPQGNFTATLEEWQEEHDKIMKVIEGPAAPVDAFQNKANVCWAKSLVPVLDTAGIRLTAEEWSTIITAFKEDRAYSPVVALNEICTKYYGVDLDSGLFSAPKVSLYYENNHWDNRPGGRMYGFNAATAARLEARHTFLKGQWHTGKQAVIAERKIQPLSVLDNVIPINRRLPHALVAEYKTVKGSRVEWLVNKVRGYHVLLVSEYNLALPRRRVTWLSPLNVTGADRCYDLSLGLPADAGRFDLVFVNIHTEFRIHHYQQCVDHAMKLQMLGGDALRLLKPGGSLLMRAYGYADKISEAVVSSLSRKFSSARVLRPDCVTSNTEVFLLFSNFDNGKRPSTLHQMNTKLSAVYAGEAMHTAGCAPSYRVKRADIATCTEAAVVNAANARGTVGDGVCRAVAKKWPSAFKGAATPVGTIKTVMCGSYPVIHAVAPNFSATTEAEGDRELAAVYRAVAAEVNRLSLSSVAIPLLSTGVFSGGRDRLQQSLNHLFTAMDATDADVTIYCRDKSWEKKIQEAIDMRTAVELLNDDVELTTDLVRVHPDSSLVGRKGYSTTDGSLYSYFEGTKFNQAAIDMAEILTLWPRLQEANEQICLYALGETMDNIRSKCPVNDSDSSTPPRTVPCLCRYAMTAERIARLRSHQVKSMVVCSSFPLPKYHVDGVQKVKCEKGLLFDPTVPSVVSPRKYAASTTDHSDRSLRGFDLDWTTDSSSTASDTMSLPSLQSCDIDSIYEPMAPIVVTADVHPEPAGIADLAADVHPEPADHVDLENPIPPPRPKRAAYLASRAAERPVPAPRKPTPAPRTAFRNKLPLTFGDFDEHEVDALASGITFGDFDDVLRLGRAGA
Sequence of SFV nsP4 (RdRp) with SFV P123, trans-replicase (P08411 1819-2431): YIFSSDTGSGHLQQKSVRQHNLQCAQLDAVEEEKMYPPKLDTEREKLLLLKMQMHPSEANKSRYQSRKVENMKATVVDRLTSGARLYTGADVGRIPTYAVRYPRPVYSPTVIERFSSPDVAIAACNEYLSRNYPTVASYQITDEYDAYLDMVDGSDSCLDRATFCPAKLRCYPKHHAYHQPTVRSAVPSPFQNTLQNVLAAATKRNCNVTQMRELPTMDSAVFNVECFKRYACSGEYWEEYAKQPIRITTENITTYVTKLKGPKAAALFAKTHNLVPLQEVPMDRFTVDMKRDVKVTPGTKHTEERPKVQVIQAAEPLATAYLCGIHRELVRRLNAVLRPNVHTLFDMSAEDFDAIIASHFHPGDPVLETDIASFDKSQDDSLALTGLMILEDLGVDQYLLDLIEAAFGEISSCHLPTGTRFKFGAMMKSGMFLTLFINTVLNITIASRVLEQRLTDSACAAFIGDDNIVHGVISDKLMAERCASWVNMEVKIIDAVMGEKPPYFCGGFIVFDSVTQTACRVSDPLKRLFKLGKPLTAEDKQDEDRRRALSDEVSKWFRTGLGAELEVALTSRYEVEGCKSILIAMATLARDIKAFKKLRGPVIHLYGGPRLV

Sequence of CHIKV nsP4 (RdRp) with SFV P123, mixed trans-replicase (Q8JUX6 1864-2474): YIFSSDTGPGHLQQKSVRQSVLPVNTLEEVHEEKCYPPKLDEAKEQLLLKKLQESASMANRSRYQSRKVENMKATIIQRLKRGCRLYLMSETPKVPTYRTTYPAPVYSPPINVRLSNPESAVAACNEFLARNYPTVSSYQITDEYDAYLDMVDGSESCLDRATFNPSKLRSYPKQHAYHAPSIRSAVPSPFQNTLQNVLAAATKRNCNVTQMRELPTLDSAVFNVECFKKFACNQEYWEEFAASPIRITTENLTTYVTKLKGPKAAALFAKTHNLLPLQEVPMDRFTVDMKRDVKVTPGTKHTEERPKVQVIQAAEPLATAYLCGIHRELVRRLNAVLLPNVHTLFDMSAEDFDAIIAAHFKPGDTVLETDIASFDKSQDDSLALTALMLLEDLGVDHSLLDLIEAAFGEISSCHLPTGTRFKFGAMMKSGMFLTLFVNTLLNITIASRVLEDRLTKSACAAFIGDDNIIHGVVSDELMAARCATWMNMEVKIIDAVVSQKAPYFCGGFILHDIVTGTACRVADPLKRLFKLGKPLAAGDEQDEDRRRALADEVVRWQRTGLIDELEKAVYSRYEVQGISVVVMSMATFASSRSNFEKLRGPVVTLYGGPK
Sequence of CHIKV nsP4 (RdRp) with SFV P123, mixed trans-replicase (P08411 1-1818, further chain): as the sequence (P08411 1-1818) above

Take `O=c1ccn([C@@H]2O[C@](F)(CO)[C@@H](O)[C@H]2O)c(=O)[nH]1` [4′-fluorouridine]: the results for the 50% effective concentration (EC50) in assay [1] and in assay [2] were 640 nM and 2100 nM, respectively.

Usually EC50 stands for the concentration giving half of the maximal effect. High values mean a less potent agent, low ones a more potent agent.
